In patent US20200278355A1, “CONJUGATED PROTEINS AND USES THEREOF” (THE SCRIPPS RESEARCH INSTITUTE, priority 2017, published 2020):

Tests used:
FLAG-NR0B1 (WT) = molecular target: T1, FLAG-NR0B1 (WT) (Homo sapiens, UniProt P51843); experiment: Gel-based BPK-29yne labeling of NR0B1 and competition in HEK293T cells; assay type: cell-based; conditions: 30 min, in-gel fluorescence
T1 construct: expressed in transfected cells; host or cells: HEK-293T, transient, pRK5-based vector
Description: (§1) 4×10^6 HEK-293T cells were seeded in poly-L-lysine coated 10 cm plates and transfected the next day with 5 μg of FLAG-NR0B1, FLAG-NR0B1-C274V, or FLAG-METAP2 cDNA in a pRK5-based expression vector. 48 h after transfection, cells were treated with indicated concentrations of BPK-29 or control compound BPK-27 for 3 h at 37° C. in DMEM containing 10% FBS and supplements as described in Cell Culture. BPK-29yne (5 μM) was then added and incubated for an additional 30 min at 37° C. FLAG immunoprecipitates were prepared as described above and following washes, the FLAG resin was resuspended in PBS (100 μL). To each sample, 12 μL of a freshly prepared “click” reagent mixture was added to conjugate the fluorophore to probe-labeled proteins. […] Samples were boiled for 5 min and proteins were resolved by SDS-PAGE (10% acrylamide), and visualized by in-gel fluorescence on a Bio-Rad ChemiDoc MP flatbed fluorescence scanner. Samples were also analyzed by immunoblotting. Recombinantly expressed FLAG-tagged protein levels were determined with the FLAG antibody (Sigma). Gel fluorescence and imaging was processed using Image Lab (v 5.2.1) software.

FLAG-NR0B1-C274V = molecular target: T2, FLAG-NR0B1-C274V (Homo sapiens, UniProt P51843, C274V); experiment: Gel-based BPK-29yne labeling of the NR0B1-C274V mutant in HEK293T cells; assay type: cell-based; conditions: 30 min, in-gel fluorescence
T2 construct: expressed in transfected cells; host or cells: HEK-293T, transient, pRK5-based vector
T2 sequence (P51843 whole entry C274V): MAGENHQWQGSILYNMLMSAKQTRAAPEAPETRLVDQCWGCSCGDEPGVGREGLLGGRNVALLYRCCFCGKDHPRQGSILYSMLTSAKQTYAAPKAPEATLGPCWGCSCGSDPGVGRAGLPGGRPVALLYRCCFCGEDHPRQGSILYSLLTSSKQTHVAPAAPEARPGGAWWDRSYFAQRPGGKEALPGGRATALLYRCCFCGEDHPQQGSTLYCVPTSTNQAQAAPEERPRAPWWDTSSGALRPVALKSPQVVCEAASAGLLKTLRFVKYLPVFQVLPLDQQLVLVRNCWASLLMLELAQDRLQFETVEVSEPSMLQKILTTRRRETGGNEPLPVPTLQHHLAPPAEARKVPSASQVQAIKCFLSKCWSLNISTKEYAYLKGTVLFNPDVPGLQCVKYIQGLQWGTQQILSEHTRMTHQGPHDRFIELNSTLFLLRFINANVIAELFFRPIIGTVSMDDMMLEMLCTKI
Description: as §1

T1 sequence (P51843 whole entry): as the sequence (P51843 whole entry C274V) above, with V274C counted along it

- BPK-29yne labeling of WT-NR0B1 (FLAG-NR0B1 (WT)): labeled WT-NR0B1
- BPK-29yne labeling of NR0B1 C274V mutant (FLAG-NR0B1-C274V): but not a C274V mutant
Structure (SMILES): C#Cc1cccc(CN(C(=O)CCl)C2CCCN(C(=O)c3ccc(N4CCOCC4)cc3)CC2)c1 (centres unmarked) [BPK-29yne, 2-chloro-N-(3-ethynylbenzyl)-N-(1-(4-morpholinobenzoyl)azepan-4-yl)acetamide]
